Experimental data published in PMC11111408, “Concurrent inhibition of oncogenic and wild-type RAS-GTP for cancer therapy” (Nature, 2024).
Read-outs that look alike come from different tables or passages of the source.

Test system: panel of 183 cancer cell lines
Experiment: Cell panel of 183 cancer cell lines, viability (CTG) at Crown Bioscience
Assay type: cell-based
Conditions: Homo sapiens
Source text: The panel consisted of cell lines with any substitution at position 12 of KRAS, NRAS or HRAS (KRAS(G12X), NRAS(G12X), HRAS(G12X)); substitutions in KRAS, NRAS or HRAS at any position other than 12, 13 and 61 (KRAS(other/VUS), NRAS(other/VUS), HRAS(other/VUS)); other oncogenic mutations in the RAS pathway (ABL1, ALK, ARAF, BRAF, CBL, EGFR, ERBB2, ERBB3, ERBB4, ERRFI1, FGFR1, FGFR2, FGFR3, FGFR4, FLT3, HRAS, IGF1R, JAK2, KIT, MAP2K1, MAP2K2, MAPK1, MET, NF1, NRAS, NTRK1, NTRK2, NTRK3, PDGFRA, PTPN11, RAC1, RAF1, RASA1, RET, RIT1, ROS1 and SOS1); and no oncogenic mutations in the RAS pathway. […] Cells were incubated for 120 h, and cell viability was determined using the CellTiter-Glo Luminescent Cell Viability Assay (CTG) (Promega, G7572) according to the manufacturer’s instructions.

Structure (SMILES): CCn1c(-c2cc(N3CCN(C4CC4)CC3)cnc2[C@H](C)OC)c2c3cc(ccc31)-c1csc(n1)C[C@H](NC(=O)[C@H]1[C@@H]3COC[C@@H]31)C(=O)N1CCC[C@H](N1)C(=O)OCC(C)(C)C2 [RMC-7977]
- EC50 (786-0, read-out: RMC-7977 EC50 (M), 786O, RAS pathway WT, Kidney): > 1e-06 M
- EC50 (A 172, read-out: RMC-7977 EC50 (M), A172, RAS pathway WT, Brain&Nerves): 1.19e-07 M
- EC50 (A549, read-out: RMC-7977 EC50 (M), A549, KRAS G12S, Lung): 5.13e-09 M
- EC50 (A-375, read-out: RMC-7977 EC50 (M), A375, BRAF V600E, Skin): > 1e-06 M
- EC50 (A-427, read-out: RMC-7977 EC50 (M), A427, KRAS G12D, Lung): 4.79e-09 M
- EC50 (AN3-CA, read-out: RMC-7977 EC50 (M), AN3CA, RAS pathway WT, Uterus): 2.87e-08 M
- EC50 (ASPC1, read-out: RMC-7977 EC50 (M), ASPC1, KRAS G12D, Pancreas): 2.63e-09 M
- EC50 (AU565, read-out: RMC-7977 EC50 (M), AU565, RAS pathway WT, Breast): > 1e-06 M
- EC50 (BRAF^MUT Other cell lines, read-out: median EC50): 7.54e-08 M
- EC50 (BRAF^V600E cell lines, read-out: median EC50): > 1e-06 M
- EC50 (BXPC-3, read-out: RMC-7977 EC50 (M), BXPC3, BRAF mut other, Pancreas): 2.97e-08 M
- EC50 (CAL-51, read-out: RMC-7977 EC50 (M), CAL51, NRAS Y137H, Breast): 2.88e-08 M
- EC50 (CAL-62, read-out: RMC-7977 EC50 (M), CAL62, KRAS G12R, HN/Thyroid): 2.29e-09 M
- EC50 (CAPAN-1, read-out: G12X (62), RMC-7977 EC50 (CTG), CAPAN1, KRAS G12X): 1.41e-09 M
- EC50 (CAPAN-1, read-out: RMC-7977 EC50 (M), CAPAN1, KRAS G12V, Pancreas): 1.41e-09 M
- EC50 (CFPAC-1, read-out: G12X (62), RMC-7977 EC50 (CTG), CFPAC1, KRAS G12X): 2.95e-09 M
- EC50 (CFPAC-1, read-out: RMC-7977 EC50 (M), CFPAC1, KRAS G12V, Pancreas): 2.95e-09 M
- EC50 (CHL-1, read-out: RMC-7977 EC50 (M), CHL1, RAS pathway WT, Skin): 2.61e-08 M
- EC50 (CHP-212, read-out: RMC-7977 EC50 (M), CHP212, NRAS Q61K, Brain&Nerves): 1.58e-09 M
- EC50 (COLO 201, read-out: RMC-7977 EC50 (M), COLO201, BRAF V600E, Large intestine/Colorectum): > 1e-06 M
- EC50 (COR-L23, read-out: G12X (62), RMC-7977 EC50 (CTG), CORL23, KRAS G12X): 2.75e-09 M
- EC50 (COR-L23, read-out: RMC-7977 EC50 (M), CORL23, KRAS G12V, Lung): 2.75e-09 M
- EC50 (Calu-1, read-out: RMC-7977 EC50 (M), CALU1, KRAS G12C, Lung): 6.61e-10 M
- EC50 (Calu-6, read-out: RMC-7977 EC50 (M), CALU6, KRAS Q61K, Lung): 1.86e-09 M
- EC50 (Capan-2, read-out: G12X (62), RMC-7977 EC50 (CTG), CAPAN2, KRAS G12X): 3.31e-10 M
- EC50 (Capan-2, read-out: RMC-7977 EC50 (M), CAPAN2, KRAS G12V, Pancreas): 3.31e-10 M
- EC50 (CoC1, read-out: RMC-7977 EC50 (M), COC1, KRAS G12D, Ovary): 1.58e-09 M
- EC50 (DLD-1, read-out: RMC-7977 EC50 (M), DLD1, KRAS G13D, Large intestine/Colorectum): 4.57e-08 M
- EC50 (DMS-53, read-out: RMC-7977 EC50 (M), DMS53, RAS pathway WT, Lung): 7.15e-08 M
- EC50 (DMS-114, read-out: RMC-7977 EC50 (M), DMS114, RAS pathway WT, Lung): 7.09e-07 M
- EC50 (DU-145, read-out: RMC-7977 EC50 (M), DU145, RAS pathway WT, Prostate): 1.72e-08 M
- EC50 (DV-90, read-out: RMC-7977 EC50 (M), DV90, KRAS G13D, Lung): 2.95e-08 M
- EC50 (EBC-1, read-out: RMC-7977 EC50 (M), EBC1, MET amp, Lung): 1.13e-09 M
- EC50 (FTC-133, read-out: RMC-7977 EC50 (M), FTC133, NF1 LOF, HN/Thyroid): > 1e-06 M
- EC50 (HCC44, read-out: RMC-7977 EC50 (M), HCC44, KRAS G12C, Lung): 5.25e-09 M
- EC50 (HCC70, read-out: RMC-7977 EC50 (M), HCC70, RAS pathway WT, Breast): > 1e-06 M
- EC50 (HCC78, read-out: RMC-7977 EC50 (M), HCC78, ROS1 fusion, Lung): 7.49e-09 M
- EC50 (HCC827, HCC827, RTKMUT/fusion, read-out: EC50): 3.03e-09 M
- EC50 (HCC827, read-out: RMC-7977 EC50 (M), HCC827, EGFR mut, Lung): 3.03e-09 M
- EC50 (HCC1187, read-out: RMC-7977 EC50 (M), HCC1187, RAS pathway WT, Breast): 2.7e-07 M
- EC50 (HCC1428, read-out: RMC-7977 EC50 (M), HCC1428, RAS pathway WT, Breast): > 1e-06 M
- EC50 (HCC1500, read-out: RMC-7977 EC50 (M), HCC1500, RAS pathway WT, Breast): 5.01e-08 M
- EC50 (HCC2279, RTKMUT/fusion, read-out: EC50): 4.52e-09 M
- EC50 (HCC2935, read-out: RMC-7977 EC50 (M), HCC2935, EGFR mut, Lung): 2.39e-09 M
- EC50 (HCC4006, HCC4006, RTKMUT/fusion, read-out: EC50): 2.39e-09 M
- EC50 (HCC4006, read-out: RMC-7977 EC50 (M), HCC4006, EGFR mut, Lung): 2.39e-09 M
- EC50 (HCT-8, read-out: RMC-7977 EC50 (M), HCT8, KRAS G13D, Large intestine/Colorectum): 3.02e-08 M
- EC50 (HCT-15, read-out: RMC-7977 EC50 (M), HCT15, KRAS G13D, Large intestine/Colorectum): 2.75e-07 M
- EC50 (HCT-116, read-out: RMC-7977 EC50 (M), HCT116, KRAS G13D, Large intestine/Colorectum): 6.61e-09 M
- EC50 (HEC-1-A, read-out: RMC-7977 EC50 (M), HEC1A, KRAS G12D, Uterus): 1.74e-09 M
- EC50 (HGC-27, read-out: RMC-7977 EC50 (M), HGC27, NF1 LOF, Stomach): > 1e-06 M
- EC50 (HPAC, read-out: RMC-7977 EC50 (M), HPAC, KRAS G12D, Pancreas): 1.1e-08 M
- EC50 (HPAF-II, read-out: RMC-7977 EC50 (M), HPAFII, KRAS G12D, Pancreas): 3.24e-09 M
- EC50 (HT-1080, read-out: RMC-7977 EC50 (M), HT1080, NRAS Q61K, Soft tissue): 2.34e-09 M
- EC50 (HepG2, read-out: RMC-7977 EC50 (M), HEPG2, NRAS Q61L, Liver): 6.76e-09 M
- EC50 (Hs766T, read-out: RMC-7977 EC50 (M), HS766T, KRAS Q61H, Pancreas): > 1e-06 M
- EC50 (Hs-578T, read-out: RMC-7977 EC50 (M), HS578T, HRAS G12D, Breast): 1.45e-08 M
- EC50 (HuCCT-1, read-out: RMC-7977 EC50 (M), HUCCT1, KRAS G12D, Liver/Bile duct): 5.13e-09 M
- EC50 (HuP-T4, read-out: RMC-7977 EC50 (M), HUPT4, KRAS G12V, Pancreas): 2.51e-09 M
- EC50 (JHH7, read-out: RMC-7977 EC50 (M), JHH7, RAS pathway WT, Liver): 8.08e-08 M
